From patent US12403136B2, “Cannabinoid derivatives as pharmaceutically active compounds and methods of preparation thereof” (JAZZ PHARMACEUTICALS RESEARCH UK LIMITED, priority 2019, dated 2025)

System: mouse model of generalised seizure (tonic hind limb extensor convulsions)
Test: Maximal electroshock seizure threshold (MEST) test in the mouse
Conditions: for % change from vehicle: change in CC50; for CC50 +/− SEM: vehicle CC50 21.0 mA
Protocol: The efficacy of exemplary cannabinoid derivatives according to Formula I and Formula II were tested in a mouse model of generalised seizure, the maximal electroshock seizure threshold (MEST) test.
The maximal electroshock seizure threshold (MEST) test is widely utilized preclinically to evaluate pro- or anti-convulsant properties of test compounds (Loscher et al., 1991).
In the MEST test the ability of a drug to alter the seizure threshold current required to induce hind limb tonic extensor convulsions is measured according to an “up and down” method of shock titration (Kimball et al., 1957). An increase in seizure threshold is indicative of anti-convulsant effect.
Conversely, a reduction in seizure threshold is indicative of a pro-convulsant effect as observed with known convulsant agents such as picrotoxin.
The ability of a test compound to alter the stimulus intensity, expressed as current (mA), required to induce the presence of tonic hind limb extensor convulsions, is assessed in the MEST.
Naïve mice were acclimatised to the procedure room in their home cages for up to 7 days, with food and water available ad libitum.
All animals were weighed at the beginning of the study and randomly assigned to treatment groups based on a mean distribution of body weight across groups.
The first animal within a treatment group was given a shock at the expected or estimated CC50 current. For subsequent animals, the current was lowered or raised depending on the convulsions outcome from the preceding animal.
Data generated from each treatment group were used to calculate the CC50±SEM values for the treatment group.
Vehicle: (5% ethanol, 5% solutol in 90% Saline) was prepared as follows: 2 mL of ethanol, 2 mL of solutol were warmed to 60° C., in 36 mL of saline (1:1:18).
The test compounds used were 12a, 12b, 18a and 18b. Test compounds were administered at 200 mg/kg (i.p.) in a 1:1:18 ethanol:solutol:saline formulation.
The data for each treatment group were recorded as the number of +'s and 0's at each current level employed and this information is then used to calculate the CC50 value (current required for 50% of the animals to show seizure behaviour)±standard error.
Test compound effects were also calculated as percentage change in CC50 from the vehicle control group.
Significant difference between drug-treated animals and controls were assessed according to Litchfield and Wilcoxon (1949).

[1] = 200 mg/kg i.p., 120 min post dose
[2] = 200 mg/kg i.p., test 120 min post dose

Question: What does the source list for `C=C(C)[C@@H]1CCC(C)=C[C@H]1c1c(O)cc2c(c1O)[C@H](CC)CCC2` [Compound 12a]?
Answer: % change from vehicle (200 mg/kg i.p., 60 min post dose): 157%; CC50 +/− SEM (200 mg/kg i.p., test 60 min post dose): 54.0 +/− 0.2 mA

Question: For `C=C(C)[C@@H]1CCC(C)=C[C@H]1c1c(O)cc2c(c1O)[C@H](CC)CCO2` [Compound 12b], which “% change from vehicle” value (200 mg/kg i.p., 30 min post dose) is on record?
Answer: 109%

Question: And the “CC50 +/− SEM” value (200 mg/kg i.p., test 30 min post dose)?
Answer: 43.8 +/− 0.2 mA

Question: For `C=C(C)[C@@H]1CCC(C)=C[C@H]1c1c(O)cc(O)c2c1CCC[C@H]2CC` [Compound 18a], which “% change from vehicle” value [1] is on record?
Answer: 99%

Question: What about the “CC50 +/− SEM” value [2] of the same molecule?
Answer: 41.8 +/− 0.5 mA

Question: `C=C(C)[C@@H]1CCC(C)=C[C@H]1c1c(O)cc(O)c2c1OCC[C@H]2CC` [Compound 18b] was tested. Which “% change from vehicle” value [1] did it give?
Answer: 92%

Question: And the “CC50 +/− SEM” value [2]?
Answer: 40.3 +/− 0.8 mA

Question: Which “% change from vehicle” value (diazepam 2.5 mg/kg i.p., 30 min post dose) does the source give for `CN1C(=O)CN=C(c2ccccc2)c2cc(Cl)ccc21` [Diazepam, diazepam, reference compound] here?
Answer: 66%
